Measurements: ChEMBL document CHEMBL1201862, “PubChem BioAssay data set” (2004)
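A five-concentration, 48-hour dose response in 96-well plates underlies each endpoint, interpolated linearly between surrounding concentrations. At the GI50, growth is halved.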 The source made the active and inactive calls. No stated cut-off is given here; in the data, active = GI50 up to about 1.1 µM and inactive = higher.

Key:
Test in all cases: growth of human tumour cells (NCI), 48 h
SK-MEL-2 = test system: SK-MEL-2
SK-MEL-28 = test system: SK-MEL-28
Malme-3M = test system: Malme-3M
SK-OV-3 = test system: SK-OV-3
NCI-H226 = test system: NCI-H226
MCF7 = test system: MCF7
MOLT-4 = test system: MOLT-4
SW-620 = test system: SW-620
A549 = test system: A549
HOP-62 = test system: HOP-62
SNB-75 = test system: SNB-75
OVCAR-8 = test system: OVCAR-8
COLO 205 = test system: COLO 205
HOP-92 = test system: HOP-92
OVCAR-4 = test system: OVCAR-4
OVCAR-3 = test system: OVCAR-3
HL-60 = test system: HL-60
SF-295 = test system: SF-295
T47D = test system: T47D
NCI/ADR-RES = test system: NCI/ADR-RES

Row | SMILES | GI50 (SK-MEL-2) | GI50 (SK-MEL-28) | GI50 (Malme-3M) | GI50 (SK-OV-3) | GI50 (NCI-H226) | GI50 (MCF7) | GI50 (MOLT-4) | GI50 (SW-620) | GI50 (A549) | GI50 (HOP-62) | GI50 (SNB-75) | GI50 (OVCAR-8) | GI50 (COLO 205) | GI50 (HOP-92) | GI50 (OVCAR-4) | GI50 (OVCAR-3) | GI50 (HL-60) | GI50 (SF-295) | GI50 (T47D) | GI50 (NCI/ADR-RES)
1 | COc1c(C=O)c2c(c(OC)c1OC)-c1ccc(OC)c(=O)cc1[C@@H](NC(C)=O)CC2 | 0.0313 µM (active) | 4.08 µM (inactive) | 0.164 µM (active) | 1.2 µM (inactive) | 0.583 µM (active) | < 0.01 µM (active) | < 0.01 µM (active) | 0.0148 µM (active) | 0.437 µM (active) | 0.36 µM (active) | 0.0254 µM (active) | 0.0444 µM (active) | 0.0239 µM (active) | 0.0288 µM (active) | 38.9 µM (inactive) | 0.0327 µM (active) | < 0.01 µM (active) | 0.185 µM (active) | > 100 µM (inactive) | –
2 | CN(C)Cc1nsc(N(C)C)n1 | > 100 µM (inactive) | > 100 µM (inactive) | > 100 µM (inactive) | > 100 µM (inactive) | > 100 µM (inactive) | > 100 µM (inactive) | – | > 100 µM (inactive) | > 100 µM (inactive) | > 100 µM (inactive) | > 100 µM (inactive) | > 100 µM (inactive) | > 100 µM (inactive) | > 100 µM (inactive) | > 100 µM (inactive) | > 100 µM (inactive) | – | > 100 µM (inactive) | > 100 µM (inactive) | > 100 µM (inactive)
3 | COC(=O)c1nsc(OC)c1Cl | – | > 100 µM (inactive) | > 100 µM (inactive) | > 100 µM (inactive) | > 100 µM (inactive) | > 100 µM (inactive) | > 100 µM (inactive) | > 100 µM (inactive) | > 100 µM (inactive) | > 100 µM (inactive) | > 100 µM (inactive) | > 100 µM (inactive) | > 100 µM (inactive) | – | > 100 µM (inactive) | > 100 µM (inactive) | > 100 µM (inactive) | > 100 µM (inactive) | – | > 100 µM (inactive)
4 | CCC1OC2C(CC=C(C)C)=C3OC(C)(O)C(C)(CC)C(=O)C3=C3OC(=O)C=C1C32 (stereo not given) | 17.3 µM (inactive) | 27.6 µM (inactive) | – | > 100 µM (inactive) | 25.9 µM (inactive) | 27.9 µM (inactive) | 20.2 µM (inactive) | 27.5 µM (inactive) | 22.6 µM (inactive) | – | – | – | 20.5 µM (inactive) | 21.7 µM (inactive) | 29.5 µM (inactive) | – | – | 47 µM (inactive) | 66.2 µM (inactive) | 27.8 µM (inactive)
5 | COc1cc(C2OC(N)=C(C#N)C3=C2C(C)CCC3)cc(OC)c1OC (stereo not given) | 71.8 µM (inactive) | > 100 µM (inactive) | 39.9 µM (inactive) | 80.7 µM (inactive) | 68.7 µM (inactive) | > 100 µM (inactive) | 34.2 µM (inactive) | > 100 µM (inactive) | – | 12.7 µM (inactive) | 10.9 µM (inactive) | 63 µM (inactive) | > 100 µM (inactive) | – | – | > 100 µM (inactive) | > 100 µM (inactive) | 28.9 µM (inactive) | 2.03 µM (inactive) | > 100 µM (inactive)
6 | Cc1nc(-[n+]2nc(-c3ccncc3)nn2-c2ccccc2)sc1C | > 100 µM (inactive) | 34.5 µM (inactive) | > 100 µM (inactive) | 21.2 µM (inactive) | 32.1 µM (inactive) | 18.6 µM (inactive) | 4.72 µM (inactive) | 20.2 µM (inactive) | 30.3 µM (inactive) | 7.96 µM (inactive) | 42.9 µM (inactive) | 42.9 µM (inactive) | 34.4 µM (inactive) | – | – | – | 57.5 µM (inactive) | 9.93 µM (inactive) | 39.4 µM (inactive) | 84.5 µM (inactive)
7 | O=C1C[C@H]2[C@@H](O1)[C@@H](O)CN1C(=O)c3ccccc3[C@H]21 | > 100 µM (inactive) | > 100 µM (inactive) | > 100 µM (inactive) | > 100 µM (inactive) | > 100 µM (inactive) | > 100 µM (inactive) | > 100 µM (inactive) | > 100 µM (inactive) | > 100 µM (inactive) | > 100 µM (inactive) | > 100 µM (inactive) | > 100 µM (inactive) | > 100 µM (inactive) | – | > 100 µM (inactive) | – | – | > 100 µM (inactive) | > 100 µM (inactive) | > 100 µM (inactive)
8 | O=C1CCCCC1CN1CCCCC1 (stereo not given) | > 100 µM (inactive) | > 100 µM (inactive) | > 100 µM (inactive) | > 100 µM (inactive) | > 100 µM (inactive) | > 100 µM (inactive) | > 100 µM (inactive) | > 100 µM (inactive) | > 100 µM (inactive) | > 100 µM (inactive) | > 100 µM (inactive) | > 100 µM (inactive) | > 100 µM (inactive) | > 100 µM (inactive) | > 100 µM (inactive) | > 100 µM (inactive) | > 100 µM (inactive) | > 100 µM (inactive) | – | > 100 µM (inactive)
9 | COc1cc2oc(=O)cc(C)c2cc1OC | > 100 µM (inactive) | > 100 µM (inactive) | > 100 µM (inactive) | > 100 µM (inactive) | > 100 µM (inactive) | > 100 µM (inactive) | > 100 µM (inactive) | > 100 µM (inactive) | > 100 µM (inactive) | > 100 µM (inactive) | > 100 µM (inactive) | > 100 µM (inactive) | > 100 µM (inactive) | – | > 100 µM (inactive) | > 100 µM (inactive) | – | > 100 µM (inactive) | – | > 100 µM (inactive)
10 | Cc1cccc(N/C(=C(/C(Cl)=C(Cl)Cl)[N+](=O)[O-])n2nnc3ccccc32)c1 | 19.1 µM (inactive) | 14.9 µM (inactive) | 14.9 µM (inactive) | 21.3 µM (inactive) | 12.9 µM (inactive) | 21.6 µM (inactive) | 88.3 µM (inactive) | 15.8 µM (inactive) | 18 µM (inactive) | 18 µM (inactive) | – | 16.5 µM (inactive) | 17.1 µM (inactive) | – | 19.5 µM (inactive) | 15.3 µM (inactive) | – | 16.9 µM (inactive) | 22.1 µM (inactive) | 19.7 µM (inactive)
11 | CCN(CC)/C(SCc1ccccc1)=C(\C(Cl)=C(Cl)Cl)[N+](=O)[O-] | 21.7 µM (inactive) | 15.9 µM (inactive) | 10.2 µM (inactive) | 39.6 µM (inactive) | 18.9 µM (inactive) | 16.8 µM (inactive) | 13.5 µM (inactive) | 21.8 µM (inactive) | 16.6 µM (inactive) | 22 µM (inactive) | – | 16.9 µM (inactive) | 17.6 µM (inactive) | – | 15.6 µM (inactive) | 11.7 µM (inactive) | 15.8 µM (inactive) | 36.1 µM (inactive) | 18.9 µM (inactive) | 17.1 µM (inactive)
12 | O=C(O)CC/C(=N\Nc1nsc2ccccc12)c1ccc(Cl)cc1 | 36.5 µM (inactive) | 17.5 µM (inactive) | 45 µM (inactive) | 32.6 µM (inactive) | > 100 µM (inactive) | 5.75 µM (inactive) | 21.9 µM (inactive) | 28.6 µM (inactive) | > 49.1 µM (inactive) | 23.5 µM (inactive) | 28.5 µM (inactive) | 43.5 µM (inactive) | 43.4 µM (inactive) | 24 µM (inactive) | 20.8 µM (inactive) | 18.3 µM (inactive) | 23.6 µM (inactive) | 32.8 µM (inactive) | 31.2 µM (inactive) | –
13 | COC(=O)c1ccc(C)cc1CC1Cc2cc(C)ccc2C1=O (stereo not given) | > 100 µM (inactive) | > 100 µM (inactive) | > 100 µM (inactive) | > 100 µM (inactive) | > 100 µM (inactive) | > 100 µM (inactive) | > 100 µM (inactive) | > 100 µM (inactive) | > 100 µM (inactive) | > 100 µM (inactive) | > 100 µM (inactive) | > 100 µM (inactive) | > 100 µM (inactive) | – | > 100 µM (inactive) | > 100 µM (inactive) | > 100 µM (inactive) | > 100 µM (inactive) | > 100 µM (inactive) | > 100 µM (inactive)
14 | CCOC(=O)c1c(O)cc(=O)[nH]c1N1CCOCC1 | > 100 µM (inactive) | > 100 µM (inactive) | – | > 100 µM (inactive) | > 100 µM (inactive) | > 100 µM (inactive) | > 100 µM (inactive) | > 100 µM (inactive) | > 100 µM (inactive) | > 100 µM (inactive) | > 100 µM (inactive) | > 100 µM (inactive) | > 100 µM (inactive) | > 100 µM (inactive) | – | > 100 µM (inactive) | – | > 100 µM (inactive) | > 100 µM (inactive) | > 100 µM (inactive)
15 | CC1(C)C2CCC1(C)C(N/C(Sc1ccccc1)=C(/C(Cl)=C(Cl)Cl)[N+](=O)[O-])C2 (stereo not given) | 12.5 µM (inactive) | 12.4 µM (inactive) | 15.1 µM (inactive) | 13.8 µM (inactive) | 16.8 µM (inactive) | 11.2 µM (inactive) | 3.22 µM (inactive) | 11.7 µM (inactive) | 14.5 µM (inactive) | 18.5 µM (inactive) | 15.6 µM (inactive) | 13.8 µM (inactive) | – | – | 13.4 µM (inactive) | 4.92 µM (inactive) | – | 13.1 µM (inactive) | 13.5 µM (inactive) | 14 µM (inactive)
16 | Cc1ncc([N+](=O)[O-])n1CCNC(=O)Cn1ccnc1[N+](=O)[O-] | > 100 µM (inactive) | > 100 µM (inactive) | > 100 µM (inactive) | > 100 µM (inactive) | > 100 µM (inactive) | > 100 µM (inactive) | > 100 µM (inactive) | > 100 µM (inactive) | > 100 µM (inactive) | > 100 µM (inactive) | > 100 µM (inactive) | > 100 µM (inactive) | > 100 µM (inactive) | – | – | > 100 µM (inactive) | > 100 µM (inactive) | > 100 µM (inactive) | > 100 µM (inactive) | > 100 µM (inactive)
